In patent US20250042887A1, “GLYCOGEN SYNTHASE KINASE-3 (GSK3) INHIBITOR COMPOUNDS FOR USE AS ANTIVIRAL AGENTS” (priority 2021, published 2025):
“Also recorded” adds a separate entry of the source. Like-named read-outs stand apart in the source and are kept apart here. Where no end group is shown, it is not given here. [ ]: non-standard residue; d: D form. pT = C[C@@H](OP(=O)(O)O)[C@H](N)C(=O)O; pS = N[C@@H](COP(=O)(O)O)C(=O)O

Tests used:
SARS-CoV-2 [1] = system: SARS-CoV-2; set-up: effect on N protein phosphorylation and SARS-CoV-2 replication: dose or concentration left out as unconfirmed; conditions: cited from earlier work
[2] = target: T1, casein kinase 1-gamma-1 (CK1γ1) (Homo sapiens, UniProt Q9HCP0); test: In vitro phosphorylation of nucleocapsid peptides, ADP-Glo, CK1g1; format: biochemical; conditions: peptide ~250 μM, 250 μM ATP, 30 min at 30° C.; duplicate measurements
T1 construct: GST; purchased SignalChem C68-11G
T1 sequence (Q9HCP0 whole entry): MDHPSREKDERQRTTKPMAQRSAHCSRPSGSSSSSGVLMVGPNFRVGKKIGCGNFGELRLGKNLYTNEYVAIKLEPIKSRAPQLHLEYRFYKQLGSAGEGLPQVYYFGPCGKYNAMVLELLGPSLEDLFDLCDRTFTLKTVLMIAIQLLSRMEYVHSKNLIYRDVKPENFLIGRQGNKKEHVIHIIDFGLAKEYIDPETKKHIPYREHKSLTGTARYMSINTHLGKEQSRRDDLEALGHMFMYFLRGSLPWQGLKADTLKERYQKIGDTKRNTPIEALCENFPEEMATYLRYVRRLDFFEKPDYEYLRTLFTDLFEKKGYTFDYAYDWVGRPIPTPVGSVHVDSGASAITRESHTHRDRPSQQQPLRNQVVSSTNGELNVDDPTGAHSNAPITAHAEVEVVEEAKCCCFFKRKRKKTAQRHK

casein kinase 1-delta = target: T2, casein kinase 1-delta (Homo sapiens, UniProt P48730); test: In vitro phosphorylation of nucleocapsid peptides, ADP-Glo, CK1d; format: biochemical; conditions: peptide ~250 μM, 250 μM ATP, 30 min at 30° C.; duplicate measurements
T2 construct: GST; purchased SignalChem C65-10G
T2 sequence (P48730 whole entry): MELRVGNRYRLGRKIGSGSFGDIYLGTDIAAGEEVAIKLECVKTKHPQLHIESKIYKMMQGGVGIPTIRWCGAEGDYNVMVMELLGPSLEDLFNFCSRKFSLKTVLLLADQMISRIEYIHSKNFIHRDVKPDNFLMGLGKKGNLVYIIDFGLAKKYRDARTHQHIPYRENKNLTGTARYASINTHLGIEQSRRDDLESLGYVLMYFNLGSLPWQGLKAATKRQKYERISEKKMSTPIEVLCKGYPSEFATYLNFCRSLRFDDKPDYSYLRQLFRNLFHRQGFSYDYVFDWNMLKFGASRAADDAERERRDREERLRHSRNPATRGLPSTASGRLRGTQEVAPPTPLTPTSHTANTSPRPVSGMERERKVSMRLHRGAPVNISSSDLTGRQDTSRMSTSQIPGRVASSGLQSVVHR

[3] = target: T3, extracellularly-regulated kinase-1 (ERK1) (Homo sapiens, UniProt P27361); test: In vitro phosphorylation of nucleocapsid peptides, ADP-Glo, ERK1; format: biochemical; conditions: peptide ~250 μM, 250 μM ATP, 30 min at 30° C.; duplicate measurements
T3 construct: GST; purchased SignalChem M29-10G
T3 sequence (P27361 whole entry): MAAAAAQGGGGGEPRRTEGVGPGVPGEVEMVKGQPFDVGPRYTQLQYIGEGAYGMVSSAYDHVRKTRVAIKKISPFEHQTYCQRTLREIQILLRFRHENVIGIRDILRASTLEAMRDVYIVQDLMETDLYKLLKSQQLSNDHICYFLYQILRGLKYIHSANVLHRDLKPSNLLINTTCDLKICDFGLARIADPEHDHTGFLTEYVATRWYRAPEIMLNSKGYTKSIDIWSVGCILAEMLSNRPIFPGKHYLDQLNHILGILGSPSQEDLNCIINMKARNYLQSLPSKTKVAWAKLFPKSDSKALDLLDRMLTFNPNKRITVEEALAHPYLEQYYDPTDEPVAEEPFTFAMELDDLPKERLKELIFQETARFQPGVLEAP

[4] = target: T4, glycogen synthase kinase-3-beta (Homo sapiens, UniProt P49841); test: In vitro phosphorylation of nucleocapsid peptides, ADP-Glo, GSK3b; format: biochemical; conditions: for Relative Phosphorylation to No Kinase Control, GSK3b: Mean ± S.Dev. (n = 3), no kinase control = 100; for Relative Phosphorylation to Autophosphorylation Control (set at 100), GSK3b: peptide ~250 μM, 250 μM ATP, 30 min at 30° C., duplicate measurements
T4 construct: GST; purchased SignalChem Go9-10G
T4 sequence (P49841 whole entry): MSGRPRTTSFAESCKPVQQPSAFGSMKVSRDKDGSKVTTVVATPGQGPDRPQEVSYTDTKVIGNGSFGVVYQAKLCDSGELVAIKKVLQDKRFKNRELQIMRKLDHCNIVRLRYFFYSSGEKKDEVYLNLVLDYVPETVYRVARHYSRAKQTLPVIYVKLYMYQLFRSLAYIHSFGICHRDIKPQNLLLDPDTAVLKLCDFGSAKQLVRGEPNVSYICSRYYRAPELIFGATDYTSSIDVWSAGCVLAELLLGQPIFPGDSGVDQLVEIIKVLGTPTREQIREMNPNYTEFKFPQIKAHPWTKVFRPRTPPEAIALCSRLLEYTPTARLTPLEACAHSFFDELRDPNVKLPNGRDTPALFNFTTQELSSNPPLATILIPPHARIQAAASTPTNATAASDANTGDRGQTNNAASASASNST

[5] = target: cyclin-dependent kinase 2/cyclin A2 (CDK2/A2) (Homo sapiens, UniProt P24941); test: In vitro phosphorylation of nucleocapsid peptides, ADP-Glo, CDK2/cyclin A2; format: biochemical; conditions: peptide ~250 μM, 250 μM ATP, 30 min at 30° C.; duplicate measurements
[6] = target: cAMP-dependent protein kinase catalytic subunit-alpha (PKACa) (Homo sapiens, UniProt P17612); test: In vitro phosphorylation of nucleocapsid peptides, ADP-Glo, PKACa; format: biochemical; conditions: peptide ~250 μM, 250 μM ATP, 30 min at 30° C.; duplicate measurements
[7] = target: T5, protein kinase C-alpha (PKC α) (Homo sapiens, UniProt P17252); test: In vitro phosphorylation of nucleocapsid peptides, ADP-Glo, PKCa; format: biochemical; conditions: for Relative Phosphorylation to No Kinase Control, PKCa: Mean ± S.Dev. (n = 3), no kinase control = 100; for Relative Phosphorylation to Autophosphorylation Control (set at 100), PKCa: peptide ~250 μM, 250 μM ATP, 30 min at 30° C., duplicate measurements
T5 construct: GST; purchased SignalChem P61-18G

SARS-CoV-2 [8] = test: Dose-response of SARS-CoV-2 viral load (intracellular N protein) in Huh-7.5.1 cells; format: cell-based; conditions: for EC50: Severe acute respiratory syndrome coronavirus 2, Huh-7.5.1, Huh-7.5.1 cells, intracellular N protein, read-out: ED50 (SARS-CoV-2)
HCoV-229E [9] = test: Dose-response of HCoV-229E viral load (dsRNA) in Huh-7.5.1 cells; format: cell-based, human coronavirus 229E (HCoV-229E); conditions: Human coronavirus 229E, read-out: ED50 (HCoV-229E)
HCoV-229E [10] = test: High-content screen of GSK3β-focused library in HCoV-229E infected Huh-7.5.1 cells (intracellular dsRNA); format: cell-based, human coronavirus 229E (HCoV-229E); conditions: Human coronavirus 229E, single dose of 10 μM, Z′ 0.7
SARS-CoV-2 [11] = test: High-content screen of GSK3β-focused library in SARS-CoV-2 infected Huh-7.5.1 cells (dsRNA or nucleocapsid); format: cell-based; conditions: Severe acute respiratory syndrome coronavirus 2, single dose of 10 μM, Huh-7.5.1 cells
Huh-7.5.1 cells = conditions: single dose of 10 μM
Description: High content screening methodology and parameters. Monitoring of the total number of cells (based on nuclei staining) and number of virus infected cells (based on dsRNA and Nucleocapsid staining) was performed using the CellInsight CX7™ High Content Screening platform (Thermo Fisher™), as previously described (33042061). Shortly, nuclei are identified and counted using the 350′461 nm wavelength (Hoechst 33342™); cell debris and other particles are deducted based on a size filter tool. A Region of Interest (ROI, or “circle”) is then drawn around each host cell and validated against the bright field image to correspond with host cell membranes. The ROI encompasses the “spots”, where dsRNA (485/521 nm wavelength) and SARS-CoV-2 nucleocapsid (533/588 nm wavelength) are localized. Finally, the software (HCS Studio Cell Analysis Software™, version 4.0) identifies, counts and measures the pixel area and intensity of the spots within each circle. The fluorescent spot area measured within each cell (circle) is then added and quantified for each well. The total circle spot intensity of each well corresponds to the viral load, and is normalized to non-infected cells, and to cells infected with no compound. Nuclei stain (Hoechst 33342™) was used to quantify cell loss (due to cytotoxicity or loss of adherence), and to normalize the changes in viral load resulting from a decrease in cell numbers.

[12] = target: T6, casein kinase 1-alpha-1 (CK1a1) (Homo sapiens, UniProt P48729); test: In vitro phosphorylation of nucleocapsid peptides, ADP-Glo, CK1a1; format: biochemical; conditions: peptide ~250 μM, 250 μM ATP, 30 min at 30° C.; duplicate measurements
T6 construct: GST; purchased SignalChem C64-10G
T6 sequence (P48729 whole entry): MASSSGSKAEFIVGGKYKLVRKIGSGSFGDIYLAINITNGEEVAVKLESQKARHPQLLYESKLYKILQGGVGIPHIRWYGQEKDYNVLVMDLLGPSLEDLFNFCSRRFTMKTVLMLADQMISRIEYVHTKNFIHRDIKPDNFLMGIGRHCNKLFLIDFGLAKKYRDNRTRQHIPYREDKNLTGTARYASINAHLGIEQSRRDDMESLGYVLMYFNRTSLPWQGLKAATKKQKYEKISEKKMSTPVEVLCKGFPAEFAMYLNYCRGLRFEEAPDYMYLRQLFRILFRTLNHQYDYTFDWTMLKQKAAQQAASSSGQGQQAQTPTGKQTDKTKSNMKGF

PKCa + GSK3b = test: In vitro phosphorylation of nucleocapsid peptides, ADP-Glo, PKCa + GSK3b combined; format: biochemical, human; conditions: Mean ± S.Dev. (n = 3); no kinase control = 100
[13] = target: T7, casein kinase 2-alpha-1 (CK2a1) (Homo sapiens, UniProt P68400); test: In vitro phosphorylation of nucleocapsid peptides, ADP-Glo, CK2a1; format: biochemical; conditions: peptide ~250 μM, 250 μM ATP, 30 min at 30° C.; duplicate measurements
T7 construct: GST; purchased SignalChem C70-10G
T7 sequence (P68400 whole entry): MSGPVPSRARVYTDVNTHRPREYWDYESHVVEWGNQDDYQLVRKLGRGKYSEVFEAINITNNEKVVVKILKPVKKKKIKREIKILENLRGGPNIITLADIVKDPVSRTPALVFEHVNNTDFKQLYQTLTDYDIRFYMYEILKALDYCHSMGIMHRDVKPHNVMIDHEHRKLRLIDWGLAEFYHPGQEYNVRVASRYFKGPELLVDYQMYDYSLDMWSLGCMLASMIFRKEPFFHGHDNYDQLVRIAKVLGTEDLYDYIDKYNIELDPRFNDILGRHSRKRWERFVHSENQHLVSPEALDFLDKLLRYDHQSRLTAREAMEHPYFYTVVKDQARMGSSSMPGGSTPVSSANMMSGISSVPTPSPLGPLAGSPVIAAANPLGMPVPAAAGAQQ

[14] = system: SARS-CoV-2 Spike S1 protein expression; format: cell-based
SARS-CoV-2 [15] = test: SARS-CoV-2 infected primary donor-derived colon organoids, intracellular N protein; format: cell-based; conditions: donor intestinal organoids monolayer, 72-hours post infection, dose-dependent
HCoV-229E [16] = format: cell-based, human coronavirus 229E (HCoV-229E)
in vitro = conditions: human
SARS-CoV-2 [17] = test: Viral titer released from 48-hour SARS-CoV-2 infected Calu-3 cells; format: cell-based; conditions: 48 hours after infection, 100 μM
SARS-CoV-2 [18] = test: Dose-response inhibition in three SARS-CoV-2 infected immortalized cell lines (Huh-7.5.1, Caco-2, Calu-3); format: cell-based; conditions: Severe acute respiratory syndrome coronavirus 2; Huh-7.5.1, Caco-2 and Calu-3 cells; read-out: ED50 in all investigated cell lines
[19] = Z′ 0.3, read-out: SARS-CoV-2 inhibition (% dsRNA)
[20] = average of screens 1 and 2, read-out: Average SARS-CoV-2 Nucleocapsid inhibition
[21] = screen 1, Z′ 0.7, read-out: SARS-CoV-2 inhibition (% Nucleocapsid) 1
[22] = screen 2, Z′ 0.5, read-out: SARS-CoV-2 inhibition (% Nucleocapsid) 2

Row | Compound | Relative Phosphorylation to Autophosphorylation Control (set at 100), CK1d (casein kinase 1-delta) | Relative Phosphorylation to Autophosphorylation Control (set at 100), ERK1 [3] | Relative Phosphorylation to No Kinase Control, GSK3b [4] | Relative Phosphorylation to Autophosphorylation Control (set at 100), GSK3b [4] | Relative Phosphorylation to Autophosphorylation Control (set at 100), CDK2 + Cyclin A2 [5] | Relative Phosphorylation to Autophosphorylation Control (set at 100), PKACa [6] | Relative Phosphorylation to No Kinase Control, PKCa [7] | EC50 (SARS-CoV-2 [8]) [µM] | EC50 (HCoV-229E [9]) [µM] | inhibition at 10 µM (HCoV-229E [10]) [%] | inhibition at 10 µM (SARS-CoV-2 [11]; [19]) [%] | inhibition at 10 µM (SARS-CoV-2 [11]; [20]) [%] | inhibition at 10 µM (SARS-CoV-2 [11]; [21]) [%] | inhibition at 10 µM (SARS-CoV-2 [11]; [22]) [%] | Average cell loss (%) (Huh-7.5.1 cells) | other results
1 | Cn1cc(C2=C(c3cn(C4CCN(Cc5ccccn5)CC4)c4ccccc34)C(=O)NC2=O)c2ccccc21 [Enzastaurin] | – | – | – | – | – | – | – | – | – | – | – | – | – | – | – | effect on infection (SARS-CoV-2 [1]; A549-ACE2 human lung cancer-derived cell line and Vero E6 cells, reference [7]): reduced infection; effect on N protein phosphorylation and SARS-CoV-2 replication (SARS-CoV-2 [1]; reference [7]): blocked N protein phosphorylation and SARS-CoV-2 replication
2 | RNSTPGSSRGT(pS)PAR (RNSTPGSSRGT[pS]PAR) [SCV2-N [195-209]-pS206, synthetic peptide modeled after SARS-CoV-2 nucleocapsid protein phosphorylation sites, pre-phosphorylated at S206] | 105 | 100 | 24,082 ± 381 | 1068 | 100 | 205 | 1531 ± 47 | – | – | – | – | – | – | – | – | Relative Phosphorylation to Autophosphorylation Control (set at 100), CK1g1 [2]: 105
3 | C[S+]([O-])c1ccc(-c2coc3ccc(-c4nnc(SCc5cccc(F)c5)o4)cc23)cc1 (stereo not shown) [Compound P-7657632] | – | – | – | – | – | – | – | ~3 | ~3 | 100 | 100 | 93.1 | 100 | 86.2 | 25.4 | –
4 | SSRSRNSSRNSTPG [SCV2-N [187-200], synthetic peptide modeled after SARS-CoV-2 nucleocapsid protein phosphorylation sites] | 100 | 100 | 2573 ± 49 | 108 | 100 | 485 | 12,687 ± 486 | – | – | – | – | – | – | – | – | Relative Phosphorylation to Autophosphorylation Control (set at 100), CK1a1 [12]: 145; Relative Phosphorylation to No Kinase Control, PKCa + GSK3b (PKCa + GSK3b): 3692 ± 61; Relative Phosphorylation to Autophosphorylation Control (set at 100), CK2a1 [13]: 103; Relative Phosphorylation to Autophosphorylation Control (set at 100), PKCa [7]: 1080
5 | [Cl-].[Li+] [Lithium chloride] | – | – | – | – | – | – | – | – | – | – | – | – | – | – | – | IC50 (SARS-CoV-2 [1]; from reference [7], read-out: IC50 to inhibit N protein phosphorylation and SARS-CoV-2 replication in cells): 10000 µM
6 | CSc1ccc(-c2coc3ccc(-c4nnc(N)o4)cc23)cc1Cl [Compound P-9071942] | – | – | – | – | – | – | – | ~3 | ~3 | 94.2 | 100 | 94.5 | 100 | 89.1 | 29.9 | –
7 | SSRSRNSSRNS(pT)PG (SSRSRNSSRNS[pT]PG) [SCV2-N [187-200]-pT198, synthetic peptide modeled after SARS-CoV-2 nucleocapsid protein phosphorylation sites, pre-phosphorylated at T198] | 152 | 100 | 23,031 ± 486 | 1042 | 101 | 157 | 7032 ± 319 | – | – | – | – | – | – | – | – | Relative Phosphorylation to Autophosphorylation Control (set at 100), CK1a1 [12]: 250; Relative Phosphorylation to Autophosphorylation Control (set at 100), CK2a1 [13]: 102; Relative Phosphorylation to Autophosphorylation Control (set at 100), PKCa [7]: 553
8 | CSc1ccc(-n2cnc3ccc(-c4nnc(CCc5cccc(C#N)c5)o4)cc32)cc1 [Compound P-0717632] | – | – | – | – | – | – | – | ~3 | ~3 | 97.6 | 68.2 | 79.3 | 75.2 | 83.3 | 24.4 | SARS-CoV-2 Selectivity Index SI (CC50 over ED50) (SARS-CoV-2 [8]; Huh 7.5.1 cells): 68; ED80 (SARS-CoV-2 [8]; SARS-CoV-2 infected Huh-7.5.1 cells): 10 µM; Spike S1 protein expression [14]: blocked; also recorded: reduced; effect on intracellular N protein levels in organoids (SARS-CoV-2 [15]): greatly decrease intracellular N protein levels; average Combination Index (CI) (HCoV-229E [16]): 0.7; CC50 (in vitro): > 100 µM; reduction of release of infective particles (SARS-CoV-2 [17]): 2 log; EC50 (SARS-CoV-2 [18]): 4 to 7 µM
9 | RNSTPGSSRGTSPAR [SCV2-N [195-209], synthetic peptide modeled after SARS-CoV-2 nucleocapsid protein phosphorylation sites] | 101 | 102 | 3291 ± 57 | 137 | 104 | 151 | 3301 ± 114 | – | – | – | – | – | – | – | – | Relative Phosphorylation to Autophosphorylation Control (set at 100), CK1g1 [2]: 104; Relative Phosphorylation to No Kinase Control, PKCa + GSK3b (PKCa + GSK3b): 4262 ± 27
